{"source": "PubChem BioAssay AID652070", "about": "(Broad Institute, 2013)", "test_system": "HT29 HRAS cells, caspase 3/7 luminescence, apoptosis", "assay": "apoptosis induction over several timepoints – cell-based, HT29 HRAS, caspase 3/7 luminescence, multiple timepoints, dry powder, mechanism study for HRAS target identification (AID 652070)", "details": "measured here: second timepoint caspase 3/7", "note": "Inconclusive results are not listed.", "data": [{"smiles": "O=C(NCCOCCOCCOc1ccc(N(C(=O)CCl)C(C(=O)NCCc2ccccc2)c2cccs2)cc1Cl)c1ccc(COC2C#CCCCCC2)cc1", "note": "(stereo unspecified)", "values": [{"measurement": "AC40", "value": "> 35", "unit": "µM"}]}]}
